Measured values taken from the NIST ThermoML archive (doi:10.1016/j.fluid.2016.10.026).

Key:
[1] = refractive index (Na D-line) (dimensionless); conditions: 101 kPa, Liquid, Standard Abbe refractometry
[2] = relative permittivity at zero frequency (dimensionless); conditions: 101 kPa, Liquid, capacitive

CC(=O)c1cccs1 [2-acetylthiophene]
Conditions	refractive index, [1]	relative permittivity at zero frequency, [2]
278.15 K	–	32.38
280.65 K	–	32.01
283.15 K	1.5705	31.64
285.65 K	1.5692	31.28
288.15 K	1.568	30.87
290.65 K	1.567	30.47
293.15 K	1.5658	29.94
295.65 K	1.5646	29.69
298.15 K	1.5633	29.19
300.65 K	1.5622	28.92
303.15 K	1.5609	28.47
305.65 K	1.5599	28.14
308.15 K	1.5586	27.76
310.65 K	1.5573	27.43
313.15 K	1.5562	27.05
315.65 K	1.555	26.75
318.15 K	1.5538	26.32
320.65 K	1.5526	25.95
323.15 K	1.5514	25.68
325.65 K	1.5502	25.33
328.15 K	1.549	25.02
330.65 K	1.548	24.7
333.15 K	1.5468	24.33
335.65 K	1.5455	23.98
338.15 K	1.5443	23.6
